Measurements reported in US20130045952A1, “ABA Receptor Agonists for Increased Plant Stress Resistance” (Van Andel Research Institute, priority 2011, published 2013).

Experiments:
Type in all cases: biochemical
His6-PYR1 / biotin-PP2C = target: T1, His6-PYR1 / biotin-PP2C (Arabidopsis thaliana, UniProt O49686); test: AlphaScreen luminescence proximity assay, PYR1-PP2C interaction; conditions: 100 nM His6-PYR1, 100 nM biotin-PP2C, 100 μM agonist; normalized against a pyrabactin control
T1 construct: made in house; host or cells: E. coli is stated for PYL1, PYL2 and the PP2Cs, not expressly for PYR1
T1 sequence (O49686 1-191): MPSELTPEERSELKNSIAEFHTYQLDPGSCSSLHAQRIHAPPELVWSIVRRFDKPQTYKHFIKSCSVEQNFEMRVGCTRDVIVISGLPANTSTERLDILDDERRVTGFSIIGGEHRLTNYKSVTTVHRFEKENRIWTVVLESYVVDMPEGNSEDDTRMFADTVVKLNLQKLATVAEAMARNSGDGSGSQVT
Procedure: (§1) Mutant proteins were expressed as H6GST-fusion proteins and purified by glutathione sepharose chromatography. Protein-protein interactions were determined by luminescence proximity AlphaScreen assay. Biotinylated PP2C proteins for the luminescence proximity assay were generated by in vivo biotinylation of avitag-PP2C fusion proteins. PP2C phosphatase activity was measured by phosphate release from a SnRK2.6 phosphoprotein.
(§2) Interactions between PYR/PYL and PP2Cs were assessed by luminescence-proximity AlphaScreen technology (Perkin Elmer). Briefly, biotinylated PP2Cs were attached to streptavidin-coated donor beads, and H6-tagged PYR/PYL receptors were attached to nickel-chelated acceptor beads. The donor and acceptor beads were brought into proximity by the interactions between PYR/PYLs and PP2Cs, which were measured with and without ligands. When excited by a laser beam of 680 nm, the donor beam emits singlet oxygen that activates thioxene derivatives in the acceptor beads, which releases photons of 520-620 nm as the binding signal. The experiments were conducted with 100 nM of PP2Cs and PYR/PYL proteins in the presence of 5 ug/ml donor and acceptor beads in a buffer of 50 mM MOPS, pH7.4, 50 mM NaF, […], and 0.1 mg/ml bovine serum albumin. The results were based on an average of three experiments with standard errors typically less than 10% of the measurements.
(§3) Values were determined in different experiments and normalized against a pyrabactin control. Blank spaces mean no experimental data is available. Key (photon counts (binding signal units) in Alphascreen luminescence proximity assay): “+++ is >75,000; ++ is 25,000−75,000; + is <25,000.

His6-PYL2 / biotin-PP2C = target: T2, His6-PYL2 / biotin-PP2C (Arabidopsis thaliana, UniProt O80992); test: AlphaScreen luminescence proximity assay, PYL2-PP2C interaction; conditions: 100 nM His6-PYL2, 100 nM biotin-PP2C, 100 μM agonist; normalized against a pyrabactin control
T2 construct: PYL2 (residues 14-188), and HAB1 (residues 172-511) were prepared as recombinant proteins in E. coli; made in house; host or cells: E. coli
T2 sequence (O80992 14-188): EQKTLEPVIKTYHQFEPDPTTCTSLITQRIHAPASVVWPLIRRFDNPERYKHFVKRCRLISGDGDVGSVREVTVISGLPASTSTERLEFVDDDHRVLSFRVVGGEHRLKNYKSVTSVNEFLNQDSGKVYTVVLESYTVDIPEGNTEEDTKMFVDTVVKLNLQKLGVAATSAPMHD
Procedure: as §1, §2, §3

His6-PYL3 / biotin-PP2C = target: T3, His6-PYL3 / biotin-PP2C (Arabidopsis thaliana, UniProt Q9SSM7); test: AlphaScreen luminescence proximity assay, PYL3-PP2C interaction; conditions: 100 nM His6-PYL3, 100 nM biotin-PP2C, 100 μM agonist; normalized against a pyrabactin control
T3 construct: made in house; host or cells: not expressly stated for PYL3
T3 sequence (Q9SSM7 1-209): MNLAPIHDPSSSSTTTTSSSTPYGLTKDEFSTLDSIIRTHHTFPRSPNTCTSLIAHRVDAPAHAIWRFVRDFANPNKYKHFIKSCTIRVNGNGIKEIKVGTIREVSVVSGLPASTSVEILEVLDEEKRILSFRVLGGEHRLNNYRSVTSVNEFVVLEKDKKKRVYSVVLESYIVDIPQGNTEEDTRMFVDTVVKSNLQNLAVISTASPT
Procedure: as §1, §2, §3

His6-PYL1 / biotin-PP2C = target: T4, His6-PYL1 / biotin-PP2C (Arabidopsis thaliana, UniProt Q8VZS8); test: AlphaScreen luminescence proximity assay, PYL1-PP2C interaction; conditions: 100 nM His6-PYL1, 100 nM biotin-PP2C, 100 μM agonist; normalized against a pyrabactin control
T4 construct: PYL1 (residues 36-211), PYL2 (residues 14-188), and HAB1 (residues 172-511) were prepared as recombinant proteins in E. coli; made in house; host or cells: E. coli
T4 sequence (Q8VZS8 36-211): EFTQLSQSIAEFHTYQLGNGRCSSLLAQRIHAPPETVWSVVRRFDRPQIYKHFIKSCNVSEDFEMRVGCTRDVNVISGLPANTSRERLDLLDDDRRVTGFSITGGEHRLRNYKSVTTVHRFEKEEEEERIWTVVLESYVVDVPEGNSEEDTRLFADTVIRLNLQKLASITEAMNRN
Procedure: as §1, §2, §3

| SMILES | Stimulation of the interaction between PYR1 and PP2C (binding signal) (His6-PYR1 / biotin-PP2C) | Stimulation of the interaction between PYL2 and PP2C (binding signal) (His6-PYL2 / biotin-PP2C) | Stimulation of the interaction between PYL3 and PP2C (binding signal) (His6-PYL3 / biotin-PP2C) | Stimulation of the interaction between PYL1 and PP2C (binding signal) (His6-PYL1 / biotin-PP2C) |
| --- | --- | --- | --- | --- |
| CC1(C)CC(=O)C(/C=N/CCc2ccc(S(N)(=O)=O)cc2)=C(O)C1 [Compound 10] | + (+ is <25,000) | + (+ is <25,000) | + (+ is <25,000) |  |
| CC(C)c1ccccc1OCCNS(=O)(=O)c1ccc2ccccc2c1 [Compound 7] | ++ (++ is 25,000−75,000) | ++ (++ is 25,000−75,000) | + (+ is <25,000) | ++ (++ is 25,000−75,000) |
| CCCCOc1cccc(C(=O)NC(=S)Nc2ccc(S(N)(=O)=O)cc2)c1 [Compound 9] | + (+ is <25,000) | + (+ is <25,000) | + (+ is <25,000) |  |
| O=S(=O)(NC[C@@H]1CCCO1)c1ccc(Br)c2ccccc12 [Compound 12] | +++ (+++ is >75,000) |  | +++ (+++ is >75,000) |  |
| O=S(=O)(NCCOc1ccccc1)c1ccc2ccccc2c1 [Compound 8] | + (+ is <25,000) | + (+ is <25,000) | ++ (++ is 25,000−75,000) |  |
| Cc1ccc(C(=O)O)cc1NC(=S)NC(=O)c1ccccc1Cl [Compound 14] | + (+ is <25,000) | + (+ is <25,000) | + (+ is <25,000) |  |
| CC(=O)c1cccc(N/C=C/C(=O)c2ccc(Cl)c(Cl)c2)c1 [Compound 15] | + (+ is <25,000) | ++ (++ is 25,000−75,000) | ++ (++ is 25,000−75,000) | + (+ is <25,000) |
| O=S(=O)(NCc1ccccn1)c1ccc2ccccc2c1 [Compound 4] | +++ (+++ is >75,000) |  | + (+ is <25,000) |  |
| CCOC(=O)C1OC(NC(=O)CSc2nnc(-c3ccccc3OCC)o2)C(C#N)C1C (centres unmarked) [Compound 5] | + (+ is <25,000) | ++ (++ is 25,000−75,000) | + (+ is <25,000) | + (+ is <25,000) |
| CCCN(CCC)C(=O)[C@@H](CCC(=O)O)NS(=O)(=O)c1ccc(C)cc1 [Compound 13] | + (+ is <25,000) |  |  |  |
| O=C(CNS(=O)(=O)c1ccccc1)OCc1ccc(Cl)c(Cl)c1 [Compound 6] | ++ (++ is 25,000−75,000) | + (+ is <25,000) | ++ (++ is 25,000−75,000) |  |
